Test results as given in PubChem BioAssay (NCI).
“And” between values parts separate entries of the source, which are not always exact repeats. Equal values may be shown once.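 Five compound concentrations were applied to cells in 96-well plates for 48 hours; endpoints were derived by simple linear interpolation of the resulting dose-response curve. GI50 marks 50% less growth. TGI is the concentration that stops growth completely.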

Experiments:
Test in all cases: NCI-60 cell line screen, 48 h
NCI-H460 lung = tested on: NCI-H460 lung
SK-OV-3 ovarian = tested on: SK-OV-3 ovarian
U251 CNS = tested on: U251 CNS
NCI-H226 lung = tested on: NCI-H226 lung
HCT-15 colon = tested on: HCT-15 colon
RPMI-8226 leukemia = tested on: RPMI-8226 leukemia
NCI-H23 lung = tested on: NCI-H23 lung
A549 NSCLC = tested on: A549 NSCLC
SW-620 colon = tested on: SW-620 colon
HCT-116 colon = tested on: HCT-116 colon

Row | SMILES | GI50 (NCI-H460 lung) [nM] | TGI (NCI-H460 lung) | GI50 (SK-OV-3 ovarian) [nM] | TGI (SK-OV-3 ovarian) | GI50 (U251 CNS) [nM] | TGI (U251 CNS) | GI50 (NCI-H226 lung) [µM] | TGI (NCI-H226 lung) | GI50 (HCT-15 colon) [nM] | TGI (HCT-15 colon) | GI50 (RPMI-8226 leukemia) [nM] | TGI (RPMI-8226 leukemia) | GI50 (NCI-H23 lung) [nM] | TGI (NCI-H23 lung) | GI50 (A549 NSCLC) [nM] | TGI (A549 NSCLC) | GI50 (SW-620 colon) [nM] | TGI (SW-620 colon) | GI50 (HCT-116 colon) [nM] | TGI (HCT-116 colon)
1 | COc1ccc(C2=CC(c3cc(OC)c(OC)c(OC)c3)n3ncnc3N2)cc1 (centres undefined) | 41.8 | 13.7 µM | 51.3 | 27 µM | 55.1 | 29.6 µM | 7.99 | 71 µM | 42 | > 100 µM | 43.9 | 81.3 µM | 87.5 | 42 µM | 85.8 | 30.3 µM | 48.4 | > 100 µM | 40.1 | > 100 µM
2 | CO[C@H]1C=C[C@]23c4cc5c(cc4CN(CC2O)[C@@H]3C1)OCO5 (some centres undefined) |  | 36.1 µM |  | 3.3 µM |  | 38.3 µM |  | 61.3 µM |  | 24.9 µM |  | > 100 µM |  | 33 µM |  | 44.9 µM |  | > 100 µM |  | 19.3 µM
3 | COC(=O)C(CC=O)C(=O)C(=O)Nc1cccc(C(F)(F)F)c1 (centres undefined) |  | > 100 µM |  | > 100 µM |  | > 100 µM |  | > 100 µM |  | > 100 µM |  | > 100 µM |  | > 100 µM |  | > 100 µM |  | > 100 µM |  | > 100 µM
4 | C/C(=C(/c1ccc(O)cc1)c1ccc(OCCN2CCCC2)cc1)c1ccccc1 | 2360 | 5.38 µM | 3250 | 13 µM | 2240 | 5.49 µM | 11.3 | 29.8 µM | 1810 | 4.64 µM | 2400 | 6.72 µM | 4310 | 18.2 µM | 3530 | 11 µM | 2280 | 5.17 µM | 2920 | 10.1 µM
5 | O=C1c2c(O)cccc2C(C(=O)CCCCC(=O)C2c3cccc(O)c3C(=O)c3c(O)cccc32)c2cccc(O)c21 |  | 1.35 µM and 1.65 µM | 921 | 1.14 µM and 1.75 µM | 1020 | 1.01 µM and 2.22 µM | 1.1 | 2.27 µM and 2.89 µM | 1750 | 2.6 µM and 5.12 µM | 1040 | 1.3 µM and 3.08 µM | 1250 | 1.56 µM and 2.59 µM | 1100 | 1.06 µM and 2.43 µM | 1730 | 10.1 µM and 7.17 µM | 1930 | 2.1 µM and 6.82 µM
6 | Cc1cc(N(CCC#N)S(=O)(=O)c2ccccc2)ccc1C=O |  | > 100 µM |  | > 100 µM |  | > 100 µM |  | > 100 µM |  | > 100 µM |  | > 100 µM |  | > 100 µM |  | > 100 µM |  | > 100 µM |  | > 100 µM
7 | O=C1OC(c2ccc(O)cc2)(c2ccc(O)cc2)c2cccc3cccc1c23 | 17900 | 39.6 µM | 18800 | 33.1 µM | 15600 | 30.3 µM | 17.6 | 44.7 µM | 13600 | 34.3 µM | 18600 | 50.5 µM | 17800 | 37.2 µM | 14400 | 36.2 µM | 15500 | 33.3 µM | 15600 | 31.5 µM
